We go through 1 molecule from paper PMC9866218, “Characterization and Chemical Synthesis of Cm39 (α-KTx 4.8): A Scorpion Toxin That Inhibits Voltage-Gated K^+ Channel KV1.2 and Small- and Intermediate-Conductance Ca^2+-Activated K^+ Channels KCa2.2 and KCa3.1” (Toxins, 2023).

For the experiment, the target named is T1, hKV1.2 (Homo sapiens, UniProt P16389).
T1 construct: GFP (vector pCMV6-AC-GFP); host or cells: CHO cells, transient transfection
Nature of the experiment: Conductance-voltage (G-V) relationship of KV1.2. The class given is cell-based. On the procedure: Mostly, scorpion toxins inhibit the KV channels by physically occluding the pore region of the channel thereby preventing the flow of K^+ ions. […] To confirm the blocking mechanism of Cm39 we determined the conductance–voltage (G–V) relationship for KV1.2 in the absence and presence of the toxin. Whole-cell currents of KV1.2 expressing CHO cells were recorded by applying the 300 ms long depolarization pulses ranging from −70 to +80 in 10 mV steps from Vh of −120 mV. […] The conductance values were calculated for each voltage step, normalized to the maximum conductance and plotted as a function of membrane potential (Em) as shown in Figure 4E. […] The midpoint voltage (V50) of the G–V relationship in the control solution (−1.0 ± 4.8, n = 4) was statistically similar to the V50 value at equilibrium block with 65 nM sCm39 (1.6 ± 4.0, n = 4) as shown in Figure 4F.
Those plasmids which lack a fluorescent tag were co-transfected with a plasmid encoding GFP. Transfections were performed at a GFP:channel DNA molar ratio of 1:10 using the Lipofectamine 2000 kit (Invitrogen) according to the manufacturer’s protocol. GFP expressing cells were identified with the Nikon TE 2000U fluorescence microscope (Nikon, Tokyo, Japan) and used for current recordings (~60–70% success rate for co-transfection). Generally, currents were recorded 24 to 48 h post transfection.
For the measurement of KV1.x, mKCa1.1 and NaV1.x currents the extracellular solution was composed of (in mM) 145 NaCl, 5 KCl, 2.5 CaCl2, 1 MgCl2, 10 HEPES and 5.5 glucose, pH 7.35. In the HK-150 and Na^+-free bath solution bath all Na^+ was substituted by K^+ or Choline-Cl, respectively, other ingredients remained unchanged. In the various TEA^+-containing solutions, Na^+ was substituted by tetraethylammonium-Cl in equimolar concentration (Figure 3). The bath solution for KCa2.2 and KCa3.1 consisted of (in mM) 145 L-Aspartic Na^+ salt, 5 KCl, 2.5 CaCl2, 1 MgCl2, 5.5 glucose and 10 HEPES, pH 7.4 and for KV11.1 (in mM) 140 Choline-Cl, 5 KCl, 2 MgCl2, 2 CaCl2, 10 HEPES, 20 glucose and 0.1 CdCl2, pH 7.35. The osmolarity of bath solutions was ranging between 302 to 308 mOsm/L. A total of 0.1 mg/mL bovine serum albumin (BSA, Sigma-Aldrich, Budapest, Hungary) was added to all the bath solutions before the patch-clamp assay to avoid toxin adsorption to the plastic surfaces of the perfusion system. Internal or pipette solution for recording KV1.x and mKCa1.1 currents consisted of (in mM) 140 KF, 2 MgCl2, 1 CaCl2, 11 EGTA and 10 HEPES, pH 7.22. […]
Whole-cell currents were recorded in voltage-clamped cells following standard protocols by using a Multiclamp 700B amplifier connected to a computer with Axon Digidata1440 digitizer and for data acquisition, Clampex 10.7 software was used (Molecular Devices). […]

“Also recorded” adds a separate entry of the source.

T1 sequence (P16389 whole entry): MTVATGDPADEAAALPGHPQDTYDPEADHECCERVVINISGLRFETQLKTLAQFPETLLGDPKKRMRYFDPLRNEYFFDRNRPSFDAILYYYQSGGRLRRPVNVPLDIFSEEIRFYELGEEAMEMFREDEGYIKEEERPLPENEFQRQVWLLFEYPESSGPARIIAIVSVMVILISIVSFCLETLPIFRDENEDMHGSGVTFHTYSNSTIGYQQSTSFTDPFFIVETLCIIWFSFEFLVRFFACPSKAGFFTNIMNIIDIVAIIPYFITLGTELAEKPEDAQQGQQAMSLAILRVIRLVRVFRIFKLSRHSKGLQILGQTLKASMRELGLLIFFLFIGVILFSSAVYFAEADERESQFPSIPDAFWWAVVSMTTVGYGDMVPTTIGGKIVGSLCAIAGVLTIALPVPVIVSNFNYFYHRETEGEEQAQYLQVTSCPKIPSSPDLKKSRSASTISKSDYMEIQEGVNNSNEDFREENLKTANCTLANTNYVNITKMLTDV

As for `CC[C@H](C)[C@@H]1NC(=O)[C@H](C)NC(=O)[C@H](C)NC(=O)[C@H](CCCCN)NC(=O)[C@@H]2CSSC[C@@H](C(=O)N[C@@H](Cc3ccc(O)cc3)C(=O)N[C@@H](Cc3ccc(O)cc3)C(=O)O)NC(=O)[C@H](CCCCN)NC(=O)[C@@H]3CSSC[C@H](NC(=O)[C@H](CCC(=O)O)NC(=O)[C@H](CO)NC(=O)[C@H](CO)NC(=O)[C@H](CO)NC(=O)[C@H](CCCCN)NC(=O)[C@@H](NC(=O)[C@H](CCCCN)NC(=O)[C@H](Cc4c[nH]cn4)NC(=O)[C@H](CC(N)=O)NC(=O)[C@@H](NC(=O)[C@H](Cc4ccccc4)NC(=O)[C@@H](N)[C@@H](C)O)[C@@H](C)CC)CSSC[C@H](NC(=O)[C@H](CCCCN)NC(=O)CNC(=O)[C@H](CO)NC(=O)[C@H](C)NC(=O)[C@H](CCCNC(=N)N)NC(=O)CNC1=O)C(=O)N[C@@H]([C@@H](C)CC)C(=O)N[C@@H](CC(N)=O)C(=O)N[C@@H](CO)C(=O)N[C@@H]([C@@H](C)O)C(=O)N3)C(=O)N[C@@H](CC(C)C)C(=O)N1CCC[C@H]1C(=O)N[C@@H](C)C(=O)N2` [Cm39], the “effect on voltage dependence of steady-state activation (conductance–voltage relationship)” value was “not altered; also recorded: completely insensitive” (65 nM, CHO cells) and “did not affect the voltage dependence of steady-state activation” (65 nM, CHO cells, listed as sCm9). Further, where the note is “65 nM, ns = not significant”, the “Mann–Whitney p, V50 with vs without toxin” value is listed as 0.89. The “midpoint voltage V50 of the G–V relationship” value (equilibrium block with 65 nM sCm39, n = 4, control solution −1.0 ± 4.8, n = 4, CHO cells, ± SEM) came to 1.6 ± 4.0.
